Source: patent US5213797A, “A80407 antibiotics” (Eli Lilly and Company, priority 1990, dated 1993)
Bridge positions count the residues as written; N and C are the ends. Square brackets hold non-standard residues; d marks the D form. Peptide text beside a SMILES is read from it. * marks the point of attachment. Ileψ(thiazoline)Cys = CC[C@H](C)[C@H](N)C1=N[C@H](C(=O)*)CS1; dOrn = NCCC[C@@H](N)C(=O)O

Legend:
[1] = tested on: Kibdelosporangium philippinensis (cultures A80407 and A80407.4); experiment: Lysozyme resistance of the producing cultures; format: cell-based; settings: both cultures
Excerpt: Methods recommended by Gordon et.al. [R. E. Gordon, D. A. Barnett, J. E. Handerhan, and C. H. Pang, "Nocardia coeliaca, Nocardia autotrophica, and the Nocardin Strain," Int. J. Syst. Bacteriol. 24, (1), 54-63 (1974)] were followed for the majority of physiological tests.

[2] = tested on: Kibdelosporangium philippinensis (cultures A80407 and A80407.4); experiment: Resistance to antibiotics of the producing cultures, antibiotic sensitivity discs on seeded ISP No. 2 agar; settings: 10 units; both cultures

Molecule | Resistance to lysozyme [1] | Resistance to antibiotics [2]
lysozyme | Neither culture was resistant | –
CC[C@H](C)[C@H](N)C1=N[C@H](C(=O)N[C@@H](CC(C)C)C(=O)N[C@H](CCC(=O)O)C(=O)N[C@H](C(=O)N[C@H]2CCCCNC(=O)[C@H](CC(N)=O)NC(=O)[C@@H](CC(=O)O)NC(=O)[C@H](Cc3cnc[nH]3)NC(=O)[C@@H](Cc3ccccc3)NC(=O)[C@H]([C@@H](C)CC)NC(=O)[C@@H](CCCN)NC2=O)[C@@H](C)CC)CS1 [bacitracin] ({Ileψ(thiazoline)Cys}-L[dE]IK[dOrn]I[dF]H[dD]N; lactam 4-C) | – | sensitive
